US20240325394A1, “SALT AND CRYSTAL FORM OF NITROGEN-CONTAINING HETEROCYCLIC DERIVATIVE, PREPARATION METHOD THEREFOR AND APPLICATION THEREOF” (SHANGHAI HANSOH BIOMEDICAL CO., LTD., priority 2020, published 2024)
pIC50: −log10 of the molar value. Read-outs that look alike come from different tables or passages of the source.

Columns and labels:
[1] = Plasma stability, human plasma; assay type: in vitro ADME; details: human
Method: (§1) Animal or human whole blood was collected, then the blood was put into a test tube containing anticoagulant, centrifuged at 3500 rpm for 10 min, and the upper layer of pale yellow plasma was collected. • 2) 10 μM of tested compound (m/M/V=C)
(§2) The compound was weighed, the stock solution was prepared with DMSO and the working solution was prepared with 100 mM phosphate buffer. • 3) 10 μM of positive control • (1) Propantheline (Propantheline Mr=449.4 Da)
(§3) • 1) 285 μL of plasma and 15 μL of 10 μM compound (tested compound) were added in turn in a 96-well plate, and incubated at 37° C. • 2) 40 μL was taken out at 0, 15, 30, 60, 90, 120 min, respectively, and 160 μL of acetonitrile termination solution containing internal standard was added. • 3) After centrifugation (3500 rpm, 10 min), 50 μL of supernatant was taken out, and then diluted with 50 μL DDH2O and injected to LC-MS/MS.
(§4) • instrument: Shimadzu LC-20 AD • chromatographic column: phenomenex Gemiu® C18 (50*4.6 mm, 5 μM particle size); • mobile phase: A: acetonitrile, B: 0.1% formic acid solution 0-8 min: 5% A→95% A, 2.0-2.1 min: 90% A→5% A; flow rate: 0.8 mL/min; running time: 5.0 min; injection volume: 5 μL.
(§5) • instrument: API4000 Liquid Chromatography-Mass Spectrometry, AB, USA; • the ion source was electrospray ionization source (ESI); • the temperature of dry gas (N2) was 500° C.; • electrospray voltage was 5500V; • the detection method was positive ion detection; • the scanning mode was selective response monitoring (MRM); • the scanning time was 0.1 s.

[2] = Plasma stability, mouse plasma; assay type: in vitro ADME
Method: as §1, §2, §3, §4, §5

[3] = Plasma stability, rat plasma; assay type: in vitro ADME
Method: as §1, §2, §3, §4, §5

[4] = Plasma stability, dog plasma; assay type: in vitro ADME
Method: as §1, §2, §3, §4, §5

[5] = Pharmacokinetics in MiaPaca 2 tumor-bearing mice (plasma, tumor tissue); assay type: in vivo; details: female, mouse, po, p.o. 6 mg/kg
Method: The pharmacokinetic behavior of the compound of the embodiment 13-1 and AMG-510 compound, administered orally at a dose of 6 mg/kg, in mice (plasma, tumor tissue and intestine) was studied using MiaPaca 2 tumor-bearing mice as test animals.
24 MiaPaca 2 tumor-bearing mice, females. 3 for each time point (0 h, 1 h, 2 h, 4 h, 6 h, 8 h, 16 h, 24 h). Shanghai xipuer-bikai Laboratory Animal Co., Ltd, Animal Production License No. (SCXK (Shanghai) 2018-0006.
Embodiment compound 13-1 and compound AMG-510 were weighed and dissolved in the solution, the mixture was shaken well, and ultrasound was performed for 15 minutes to obtain a uniform suspension with a concentration of 0.6 mg/mL.
MiaPaca 2 tumor-bearing mice were administered at a dose of 6 mg/kg in a volume of 10 mL/kg, respectively, based on body weight p.o. after fasting (animals were not administered at point 0 h).
Before and after administration, mice were sacrificed with CO2, 0.5 mL blood was collected from the heart and placed in EDTA-2K tube, centrifuged at 4° C. […] The duodenum, ileum and colon tissues were cut with scissors, the contents were removed and cleaned twice with PBS, after absorbing water with absorbent paper, they were weighed, placed in a 2 mL centrifuge tube and stored at −80° C.

[6] = system: NCI-H358 cells (KRAS G12C mutant); experiment: Inhibition of NCI-H358 cell proliferation (CellTiter-Glo, 72 h); assay type: cell-based, human
Method: (§6) When NCI-H358 or Mia PaCa-2 cells were cultured to the appropriate fusion level, the NCI-H358 or Mia PaCa-2 cells were collected, and the cells were adjusted to the appropriate cell concentration using a complete medium, and the cell suspension was spread in a 96-well plate, 90 μL per well, and placed in a 37° C., 5% CO2 incubator overnight; and compound solutions of different concentrations were prepared using DMSO and culture medium; and a solvent control was set, the compound solution was added to a 96-well plate, 10 μL per well, at 37° C. in a 5% CO2 incubator for 72 hours; CellTiter-Glo solution was added thereto and the mixture was mixed well by shaking, incubated for 10 min in the dark, and read by BioTek Synergy H1 microplate reader.
(§7) The luminescence signal values were used to calculate the inhibition rate, the concentration and the inhibition rate were fitted to a nonlinear regression curve using Graphpad Prism software, then the IC50 value was obtained.

[7] = system: Mia PaCa-2 cells (KRAS G12C mutant); experiment: Inhibition of Mia PaCa-2 cell proliferation (CellTiter-Glo, 72 h); assay type: cell-based, human
Method: as §6, §7

human KRAS G12C protein = molecular target: T1, human KRAS G12C protein (Homo sapiens, UniProt P01116, G12C); experiment: Thermal shift: melting temperature of KRAS G12C protein; assay type: binding; details: for Tm: KRAS G12C protein 5.37 μM with compound 10 μM, 1 hour; for ΔTm at 10 µM: Tm minus Tm of DMSO solvent control, compound 10 μM
T1 construct: purchased Beijing SinoBiological Co., Ltd. 12259-H07E2
Method: In this experiment, the thermal shift method was used to test the degree of change in the melting temperature (Tm) of the KRAS G12C protein before and after the binding of the compound, in order to characterize the ability of the compound to improve the stability of the KRAS G12C protein.
The specific experiment operation was as follows: • A solution containing […] (pH 7.5), 1 mM DTT, 5× SYPRO Orange and 150 mM NaCl was prepared as the experimental buffer, and a final concentration of 5.37 μM human KRAS G12C protein was added thereto. The reaction mixture was divided into 8 rows of PCR tubes, each 19.5 μL, and 0.5 μL of the test compound or DMSO were added respectively, so that the total reaction system was 20 μL, the final concentration of the compound was 10 μM, and 2.5% DMSO was set as the solvent control. After incubating at room temperature in the dark for 1 hour, the PCR tube was put into the PCR instrument, QuantStudio Software v1.3 was opened, and the melting temperature of KRAS G12C protein in different treatment groups was detected by melt curve function (heating from 25° C. to 95° C., 0.03° C./s).
The experimental data file of PCR instrument was imported into thermal shift software, and the melting temperature (Tm) of each treatment group was obtained, and the change value of melting temperature (ATm) was obtained by subtracting the Tm of DMSO solvent control group.

SMILES: C=CC(=O)N1CCN(c2nc(=O)n(-c3c(C)ccnc3C(C)C)c3nc(-c4c(O)cccc4F)c(F)cc23)[C@@H](C)C1 [AMG 510, reference compound]
- Residual rate (%) 0 min ([1]; 0 min, 0.5 μM): 100.00%
- Residual rate (%) 15 min ([1]; 15 min, 0.5 μM): 93.77%
- Residual rate (%) 30 min ([1]; 30 min, 0.5 μM): 85.72%
- Residual rate (%) 60 min ([1]; 60 min, 0.5 μM): 82.51%
- Residual rate (%) 120 min ([1]; 120 min, 0.5 μM): 64.44%
- half-life at 0.5 μM ([1]; plasma): 3.31 h
- Residual rate (%) 0 min ([2]; mouse plasma, 37° C., 0 min): 100.00%
- Residual rate (%) 15 min ([2]; mouse plasma, 37° C., 15 min): 97.50%
- Residual rate (%) 30 min ([2]; mouse plasma, 37° C., 30 min): 82.58%
- Residual rate (%) 60 min ([2]; mouse plasma, 37° C., 60 min): 81.82%
- Residual rate (%) 120 min ([2]; mouse plasma, 37° C., 120 min): 63.23%
- half-life at 0.5 μM ([2]; mouse, plasma): 3.08 h
- Residual rate (%) 0 min ([3]; rat plasma, 37° C., 0 min): 100.00%
- Residual rate (%) 15 min ([3]; rat plasma, 37° C., 15 min): 100.85%
- Residual rate (%) 30 min ([3]; rat plasma, 37° C., 30 min): 93.03%
- Residual rate (%) 60 min ([3]; rat plasma, 37° C., 60 min): 77.54%
- Residual rate (%) 120 min ([3]; rat plasma, 37° C., 120 min): 56.77%
- half-life at 0.5 μM ([3]; rat, plasma): 2.29 h
- Residual rate (%) 0 min ([4]; dog plasma, 37° C., 0 min): 100.00%
- Residual rate (%) 15 min ([4]; dog plasma, 37° C., 15 min): 98.88%
- Residual rate (%) 30 min ([4]; dog plasma, 37° C., 30 min): 101.14%
- Residual rate (%) 60 min ([4]; dog plasma, 37° C., 60 min): 93.43%
- Residual rate (%) 120 min ([4]; dog plasma, 37° C., 120 min): 91.92%
- half-life at 0.5 μM ([4]; dog, plasma): 14.7 h
- MRT ([5]; Plasma): 0.8 h
- half-life ([5]; Plasma): 0.3 h
- MRT ([5]; Tumor): 0.7 h
- half-life ([5]; Tumor): 0.3 h
- Kp ([5]; exposure in tumor to exposure in plasma, read-out: Ratio (T/P)): 0.42

SMILES: C=CC(=O)N1CCN(c2nc(=O)n(-c3c(SC)ccnc3C(C)C)c3nc(-c4c(O)cccc4F)c(F)cc23)[C@@H](C)C1 [Embodiment 1-1, P-4-((S)-4-acryloyl-2-methylpiperazin-1-yl)-6-fluoro-7-(2-fluoro-6-hydroxyphenyl)-1-(2-isopropyl-4-(methylthio)pyridin-3-yl)pyrido[2,3-d]pyrimidin-2(1H)-one]
- pIC50 [6]: 7.55
- pIC50 [7]: 7.26

SMILES: C=CC(=O)N1CCN(c2nc(=O)n(-c3c(SC)ccnc3C(C)C)c3nc(-c4c(O)cccc4F)c(Cl)cc23)[C@@H](C)C1 [Embodiment 3, 4-((S)-4-Acryloyl-2-methylpiperazin-1-yl)-6-chloro-7-(2-fluoro-6-hydroxyphenyl)-1-(2-isopropyl-4-(methylthio)pyridin-3-yl)pyrido[2,3-d]pyrimidin-2(1H)-one]
- pIC50 ([6]; Homo sapiens, NCI-H358, 72 h): 7.85
- Tm (human KRAS G12C protein): 61.5 °C
- ΔTm at 10 µM (human KRAS G12C protein): 10.9 °C
- pIC50 ([7]; Homo sapiens, MIA PaCa-2, 72 h): 7.39

SMILES: C=CC(=O)N1CCN(c2nc(=O)n(-c3c(SC)ccnc3C(C)C)c3nc(-c4c(F)cccc4SC)c(F)cc23)[C@@H](C)C1 [Embodiment 4, 4-((S)-4-Acryloyl-2-methylpiperazin-1-yl)-6-fluoro-7-(2-fluoro-6-(methylthio)phenyl)-1-(2-isopropyl-4-(methylthio)pyridin-3-yl)pyrido[2,3-d]pyrimidin-2(1H)-one]
- pIC50 ([6]; Homo sapiens, NCI-H358, 72 h): 7.32
- Tm (human KRAS G12C protein): 61.2 °C
- ΔTm at 10 µM (human KRAS G12C protein): 11.7 °C
- pIC50 ([7]; Homo sapiens, MIA PaCa-2, 72 h): 7.33

SMILES: C=CC(=O)N1CCN(c2nc(=O)n(-c3c(SC)ccnc3C(C)C)c3nc(-c4c(F)cccc4F)c(Cl)cc23)[C@@H](C)C1 [Embodiment 12, (S)-4-(4-acryloyl-2-methylpiperazin-1-yl)-7-(2,6-difluorophenyl)-6-chloro-1-(2-isopropyl-4-(methylthio)pyridin-3-yl)pyrido[2,3-d]pyrimidin-2(1H)-one]
- pIC50 ([6]; Homo sapiens, NCI-H358, 72 h): 7.10
- pIC50 ([7]; Homo sapiens, MIA PaCa-2, 72 h): 7.17
